Patent US12577247B2 (BUGWORKS RESEARCH, INC., priority 2021, dated 2026)
Like-named read-outs stand apart in the source and are kept apart here.

How the values were obtained:
[1] = system: human Peripheral blood mononuclear cells (PBMCs); assay: Cytokine restoration assay in human PBMCs (IL-2, TNF-α) under NECA; assay type: cell-based; settings: PBMC, NECA 5 μM, anti CD3/28 Dynabeads, 48 hours
Excerpt: The ability of the invention compounds disclosed herein to restore the cytokines (IL-2 and TNF-α) release under adenosine agonist (NECA) environment evaluated using human Peripheral blood mononuclear cells (PBMCs). Peripheral blood was collected from healthy adult individuals in vacutainer tube. Peripheral blood mononuclear cells (PBMCs) were isolated via density gradient centrifugation, which uses Ficoll (Histopaque buffer) combined with short, low-speed centrifugation, to separate different cell populations. Diluted defibrinated blood was layered on a Ficoll and centrifuged at 1800 rpm for 20 minutes at 22° C. Differential migration of cells during centrifugation results in the formation of layers containing different cell types. The bottom layer contains erythrocytes. Remaining cells (i.e., lymphocytes, monocytes, and platelets) that are not dense enough to penetrate the Ficoll media layers (densities of 1.0770 g/ml), forms a buffy coat at the interface between the upper plasma layer and the Ficoll media layer. After carefully collected the buffy coat excess of platelets, Ficoll and plasma were removed by washing it with isotonic sterile phosphate buffered saline (PBS) and resulting cell pellet was resuspended in RPMI media with 5% FBS an P/S. The isolated PBMCs were allowed to be conditioned for an hour at 37° C. in a CO2 incubator. These cells were subsequently used for specific downstream assay. Isolated PBMC (3×10^5 cells/200 μl) were plated in 96 well microtiter plate in RPMI media with 5% FBS in presence of 100 units of penicillin plus 100 μg/ml streptomycin. NECA was added at a final concentration of 5 μM, control wells were maintained without NECA suppression (i.e., no NECA control). The assay plates were incubated at 37° C. for 4 hours in a CO2 incubator. Various concentrations of test compounds were added into respective wells in triplicates. Pre-washed anti CD3/28 Dynabeads (2.5 μL) was added for CD4 and CD8 + T-cell stimulation (to obtain a bead-to-cell ratio of 1:1). The assay plate was incubated at 37° C. in 5% CO2 and 20% ambient O2 maximum for 48 hours. At the end of 48 hours, the activated PBMC were harvested, and culture supernatants were used directly for further analysis. Forty-eight hours post treatment, 15 μL of cell-free supernatant was collected and assayed for secreted IL2 using the human Interleukin 2 (hIL2)—LANCE Ultra Detection Kit (Perkin Elmer). Similarly, level of soluble Tumor Necrosis Factor alpha (TNFα) was determined using human TNFα LANCE Ultra Detection Kit (Perkin Elmer). T-FRET signal was measured with Tecan spark multimode plate reader. Data was analyzed by graph-pad prism9. EC50 s of the compounds of Formula (I) in restoration of cytokine release under adenosine agonist from the human PBMCS are presented in Table 2

Dog hepatocytes = assay: Metabolic stability and intrinsic clearance in dog hepatocytes (with IVIVE); assay type: in vitro ADME; settings: Dog; for Predicted CLh: IVIVE from hepatocyte CLint; for Hepatocyte Clint: Table 6 (IVIVE)
Method: (§1) The metabolic stability was expressed as the percentage of parent remaining is calculated from the peak area ratio of NCE remaining after incubation (tx) compared to the time zero (t0) incubation. The percentage of parent test compound remaining at each time point was calculated by comparing the peak area ratio of test compound after incubation (tx) with peak area of time zero (t0) incubation. Similarly, half-life (t½) was calculated using following equation:
(§2) [formula] The intrinsic clearance (Clint) was calculated using the following equations:
(§3) [formula] Scaling factors to represent […] million cells/gm liver and liver/kg body wt.

[2] = as above; assay type: in vitro ADME; settings: Dog hepatocytes
Method: as §1, §2, §3

[3] = Plasma protein binding, equilibrium dialysis, rat; assay type: in vitro ADME; settings: plasma (10% plasma, extrapolated to 100% plasma), Sprague-Dawley plasma, 18 hours at 37° C.
Method: Protein binding is measured using the equilibrium dialysis technique. Compound is added to 10% plasma giving a concentration of 10 μM and dialysed with isotonic buffer for 18 hours at 37° C. The plasma and buffer solutions are analysed using generic LC UV/MS and the first apparent binding constant for the compound derived. The binding constant is then used to determine the % free in 100% plasma
The percentage of plasma bound/unbound fraction preparation was calculated as follows
[formula] [formula] where, • Tc=Total plasma concentration was determined by the calculated concentration on the plasma side of the chamber • Fc=[…] was determined by the calculated concentration on the buffer side of the chamber • To=Total compound concentration determined before analysis.

A2B receptor = target: T1, A2B receptor (Homo sapiens, UniProt P29275); assay: A2bR antagonism IC50, cAMP TR-FRET (Lance Ultra) in HEK-293 cells, NECA as agonist; assay type: cell-based; design: host or cells: HEK-293; settings: HEK-293 cells expressing A2B receptor; agonist NECA 30 nM (EC90); inhibition of cAMP
T1 sequence (P29275 1-332): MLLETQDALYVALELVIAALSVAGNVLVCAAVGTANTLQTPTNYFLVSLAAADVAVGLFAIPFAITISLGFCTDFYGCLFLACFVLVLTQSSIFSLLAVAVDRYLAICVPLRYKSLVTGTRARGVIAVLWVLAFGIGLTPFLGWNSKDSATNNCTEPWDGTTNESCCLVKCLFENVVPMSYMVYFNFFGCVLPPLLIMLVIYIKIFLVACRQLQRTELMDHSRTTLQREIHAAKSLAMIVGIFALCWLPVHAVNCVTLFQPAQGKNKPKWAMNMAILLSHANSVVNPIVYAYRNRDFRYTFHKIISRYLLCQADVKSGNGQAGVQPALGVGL
Excerpt: Adenosine A2A receptors and Adenosine A2B receptors induce the production of cAMP when activated/stimulated by an agonist like adenosine or 5′-(N-Ethylcarboxamido) adenosine (NECA). A Time-Resolved Fluorescence Energy Transfer (TR-FRET) assay was used to show the inhibition of this cAMP production in HEK cells upon treatment with compounds of the Formula I of the present disclosure.
HEK-293 cells expressing A2A receptor (#ES-011-C) or A2B receptor (#ES 013-C) were obtained from PerkinElmer. Cells were maintained in DMEM medium supplemented with 10% FBS and 200 μg/mL of G418 at 37° C. and 5% CO2. The cells were cultured in antibiotic free medium for a period of 16-20 hours prior to the assay. All subsequent steps of the assay are performed at room temperature (22-24° C.). The cells were harvested at about 80% confluency by gentle flushing with PBS, recovered by centrifugation and resuspended in stimulation buffer at the concentration of 5.0×10^6 cells/mL.
The assays were conducted in a stimulation buffer containing 1×DMEM, 5 mM HEPES, 0.1% BSA stabilizer and 20-30 μM Rolipram. Serial dilutions of compounds were made in stimulation buffer to achieve a final concentration of high micromolar (10 μM to 0.08 nM) in the reaction volume of 10 μL. The total reaction volume was 10 μL (5 μL of cells, 2.5 μL of antagonist and 2.5 μL of agonist). The stimulation was ended, and the reaction completed by adding 5 μL of 4× Eu-cAMP tracer working solution and 5 μL of 4× ULight-anti-cAMP working solution. The TR-FRET signal was measured after 1-hour incubation using a Tecan M1000 reader.

[4] = read-out: IL-2 restoration EC50
[5] = read-out: TNF-α restoration EC50

Row | Predicted CLh (Dog hepatocytes) | Hepatocyte Clint (Dog hepatocytes) | hepatocyte CLint at 0.5 μM [2] | fraction unbound at 18 h, 10 µM [3] | IC50 (A2B receptor) | Structure (SMILES) | EC50 [1, 4] | EC50 [1, 5]
1 | 10 mL/min/kg | <4.1 μl/min/10^6 | < 4.1 µL/min/1e6 cells | 0.139 | – | CCc1c(C)nn2c(N)c(C#N)c(NCCc3ccn(C4COCC4CO)n3)nc12 (single isomer, unassigned; (-)) [Example 122b, (−)-7-amino-3-ethyl-5-((2-(1-(4-(hydroxymethyl)tetrahydrofuran-3-yl)-1H-pyrazol-3-yl)ethyl)amino)-2-methyl pyrazolo[1,5-a]pyrimidine-6-carbonitrile] | 1.4 nM | 1.2 nM
2 | 17 mL/min/kg | 9.5 μl/min/10^6 | 9.5 µL/min/1e6 cells | 0.0964 | 3.4 nM | Cc1cccc(CCNc2nc3c(C)c(C)nn3c(N)c2C#N)n1 [Example 13, 7-amino-5-((2-(6-methylpyridin-2-yl)ethyl)amino)-2,3-dimethylpyrazolo[1,5-a]pyrimidine-6-carbonitrile] | 5.5 nM | 5.2 nM
3 | 18 mL/min/kg | 10.8 μl/min/10^6 | 10.8 µL/min/1e6 cells | 0.249 | 0.94 nM | CCc1c(C)nn2c(N)c(C#N)c(NCCc3ccn(C4(CO)CC4)n3)nc12 [Example 39, 7-amino-3-ethyl-5-((2-(1-(1-(hydroxymethyl)cyclopropyl)-1H-pyrazol-3-yl)ethyl)amino)-2-methylpyrazolo[1,5-a] pyrimidine-6-carbonitrile] | 4.2 nM | 2.3 nM
